Data published in patent publication US20090012046A1, “Methods of Treating Mutated Hiv” (priority 2006, published 2009).
Values joined by “and” are separate entries in the source; they are usually repeats but may differ in a detail not shown here. Identical values can stand only once. Counter-ions that a name gives are not always drawn.

Assays:
Assay type in all cases: cell-based
HIV-1 IIIB = experiment: In vitro selection of viral strains resistant to RT inhibitors in MT4-LTR-EGFP cells; conditions: NcRTI-1: prolonged exposure (190 days)
Text: To in vitro select viral strains resistant to RT inhibitors, MT4-LTR-EGFP cells were infected in the presence of the inhibitor (at 2 or 3 times EC50). Cultures were passaged every 3 to 4 days at the same concentration of inhibitor, until full virus breakthrough. At that time, virus was harvested and used for a new round of selection at a higher compound concentration. At each breakthrough, the harvested virus was genotyped to identify acquired mutations. For several RT inhibitors, alone or in combination, the mutations selected when replicating wild type HIV-1 (IIIB) in their presence, were determined (see Table 3).

[1] = test system: HIV-1 strain with RT mutation K065R; experiment: Susceptibility of site-directed mutant strain; conditions: SDM strain K065R
Text: (§1) Site-directed mutant RT coding sequences were generated from a pGEM vector containing the HIV-1 clone HXB2 protease and RT coding sequence by using a QuikChange™ site-directed mutagenesis kit, and HPLC-purified primers. Plasmids were sequenced to confirm that they contained the desired mutations. Mutant viruses were created by recombination of the mutant protease-RT sequence with a protease-RT deleted HIV-1 HXB2 proviral clone^2.

[2] = test system: HIV-1 strain with RT mutation K103N; experiment: Susceptibility of site-directed mutant strain; conditions: SDM strain K103N
Text: as §1

[3] = test system: HIV-1 strain with RT mutation M184V; experiment: Susceptibility of site-directed mutant strain; conditions: SDM strain M184V
Text: as §1

[4] = test system: HIV-1 strain with RT mutation Y115F; experiment: Susceptibility of site-directed mutant strain; conditions: SDM strain Y115F
Text: as §1

[5] = test system: HIV-1 strain with RT mutation Y181C; experiment: Susceptibility of site-directed mutant strain; conditions: SDM strain Y181C
Text: as §1

[6] = test system: HIV-1 strain with RT mutation Y188L; experiment: Susceptibility of site-directed mutant strain; conditions: SDM strain Y188L
Text: as §1

[7] = test system: HIV-1 strain with RT mutations F227C L234I; experiment: Susceptibility of site-directed mutant strain; conditions: SDM strain F227C L234I
Text: as §1

[8] = test system: HIV-1 strain with RT mutations K065R M184V; experiment: Susceptibility of site-directed mutant strain; conditions: SDM strain K065R M184V
Text: as §1

[9] = test system: HIV-1 strain with RT mutations K101E K103N; experiment: Susceptibility of site-directed mutant strain; conditions: SDM strain K101E K103N
Text: as §1

[10] = test system: HIV-1 strain with RT mutations K103N Y181C; experiment: Susceptibility of site-directed mutant strain; conditions: SDM strain K103N Y181C
Text: as §1

[11] = test system: HIV-1 strain with RT mutations L100I K103N E138G V179I Y181C; experiment: Susceptibility of site-directed mutant strain; conditions: SDM strain L100I K103N E138G V179I Y181C
Text: as §1

[12] = test system: HIV-1 strain with RT mutations L100I K103N; experiment: Susceptibility of site-directed mutant strain; conditions: SDM strain L100I K103N
Text: as §1

[13] = test system: HIV-1 strain with RT mutations M041L D067N K070R T215Y; experiment: Susceptibility of site-directed mutant strain; conditions: SDM strain M041L D067N K070R T215Y
Text: as §1

[14] = test system: HIV-1 strain with RT mutations T069S ins069-070S-S L210W T215Y; experiment: Susceptibility of site-directed mutant strain; conditions: SDM strain T069S ins069-070S-S L210W T215Y
Text: as §1

[15] = test system: HIV-1 strain with RT mutations Y115F M184V; experiment: Susceptibility of site-directed mutant strain; conditions: SDM strain Y115F M184V
Text: as §1

HIV-2 (ROD) = experiment: Susceptibility of HIV-2 strain
[16] = test system: HIV-1 strain with RT mutations A62V V75I F77L F116Y Q151M; experiment: Susceptibility of site-directed mutant strain; conditions: SDM strain A62V V75I F77L F116Y Q151M
Text: as §1

clinical HIV-1 isolates = experiment: Susceptibility of recombinant clinical HIV-1 isolates to RT inhibitors (fold change in EC50)
Description: The susceptibility of over 6000 recent clinical HIV-1 isolates for NcRTI-1 and different N(t)RTIs and NNRTIs was assessed.
Recombinant HIV-1 viruses, derived from clinical samples, were constructed by cotransfection of MT4 cells with sample derived viral protease and RT coding sequences and an HIV-1 HXB2-derived proviral clone deleted in the protease and RT coding region^2.

[17] = over 6000 recent clinical HIV-1 isolates

Row | SMILES | selection of the K65R mutation when combined with TDF (HIV-1 IIIB) | Fold change [1] | Fold change [2] | Fold change [3] | Fold change [4] | Fold change [5] | Fold change [6] | Fold change [7] | Fold change [8] | Fold change [9] | Fold change [10] | Fold change [11] | Fold change [12] | Fold change [13] | Fold change [14] | Fold change [15] | Fold change (HIV-2 (ROD)) | Fold change [16] | other results
1 | Nc1nc(=O)n([C@@H]2CS[C@H](CO)O2)cc1F [FTC, emtricitabine] | the K65R mutation was selected | – | – | – | – | – | – | – | – | – | – | – | – | – | – | – | – | – | –
2 | Cc1ccnc2c1NC(=O)c1cccnc1N2C1CC1 [NVP, nevirapine] | – | 3.4 | 50 | 2.3 | 2.9 | >100 | >100 | 31 | 1.2 | >100 | >100 | >100 | >100 | 2.8 | 1.1 | 2.3 | >100 | – | –
3 | CC(C)OC(=O)OCOP(=O)(CO[C@H](C)Cn1cnc2c(N)ncnc21)OCOC(=O)OC(C)C [TDF, tenofovir disoproxil fumarate] | – | 6.0 | 0.6 | 0.8 | 1.0 | 0.7 | 0.7 | 0.6 | 2.3 | 0.5 | 0.5 | 0.4 | 0.3 | 3.3 | 2.3 | 0.9 | 1.0 | 3.7 | –
4 | Cn1c2ccccc2c2c1cc(C#N)c(=O)n2-c1ccc([N+](=O)[O-])cc1 [NcRTI-1, 5-Methyl-1-(4-nitro-phenyl)-2-oxo-2,5-dihydro-1H-pyrido[3,2-b]indole-3-carbonitrile] | did not result in selection of the K65R mutation | 0.46 and 0.5 | 1.9 | 5.0 | 7.9 | 2.3 | 1.7 | 2.0 | 0.89 and 0.9 | 2.1 | 2.1 | 2.5 | 2.6 | 3.8 | 0.9 | 75 | 14 | 1.0 | effect of NNRTI resistance mutations and N(t)RTI multi-drug resistant patterns (TAMs, T69 insertion complex, Q151M complex) on activity (clinical HIV-1 isolates): not affected; cross-resistance with the NNRTIs EFV or NVP and the N(t)RTIs ZDV, TDF, ABC (clinical HIV-1 isolates; clinical HIV-1 isolates): No cross-resistance was observed; effect of the K65R mutation on susceptibility (clinical HIV-1 isolates; clinical isolates with K65R): hypersusceptibility; FC (fold change in EC50) (clinical HIV-1 isolates; clinical isolates with combination of mutations M184V+Y115F, random set of more than 1700 isolates): 75; profiled clinical isolates showing resistance (FC>10) (clinical HIV-1 isolates; [17]): 2.3%; profiled clinical isolates that remained susceptible (fold change in EC50 (FC)<4) (clinical HIV-1 isolates; [17]): 82%; profiled clinical isolates with reduced susceptibility (FC4-10) (clinical HIV-1 isolates; [17]): 15.7%
5 | Nc1ccn([C@@H]2CS[C@H](CO)O2)c(=O)n1 [3TC, lamivudine] | – | >20 | 1.1 | >100 | 0.7 | 1.1 | 1.9 | 1.1 | >100 | 1.3 | 0.9 | 0.7 | 0.5 | 8.1 | 9.5 | >100 | 0.6 | – | –
6 | Cc1cn([C@H]2C[C@H](N=[N+]=[N-])[C@@H](CO)O2)c(=O)[nH]c1=O [ZDV, zidovudine] | – | – | – | – | – | – | – | – | – | – | – | – | – | – | – | – | 0.1 | – | –
